Measured values as given in patent US20250206760A1, “NITROGEN-CONTAINING HETEROCYCLIC COMPOUND, PREPARATION METHOD THEREFOR, AND PHARMACEUTICAL APPLICATION THEREOF” (Jiangsu Hengrui Pharmaceuticals Co., Ltd., priority 2022, published 2025).

How the values were obtained:
[1] = system: HER2 wild-type Ba/F3 cells; experiment: Ba/F3 cell proliferation assay, HER2 wild-type; assay type: cell-based; settings: Mus musculus, BaF3, 72 h, Celltiter-Glo cell viability; for GI50: read-out: HER2 WT/BaF3 GI50; for Emax: read-out: HER2 WT/BaF3 Imax %
Procedure: (§1) EGFR wild-type Ba/F3 cells (Cobioer, Cat. No. CBP73110) in the logarithmic growth phase were seeded into a 96-well plate at 2.5×10^3 cells/[…] in a growth medium, and HER2 wild-type Ba/F3 cells (Cobioer, Cat. No. CBP73110) or HER2 A775_G776insYVMA mutant Ba/F3 (Cobioer, Cat. No. CBP73184) in the logarithmic growth phase were seeded into a 96-well plate at 5×10^3 cells/100 μL in a growth medium.
(§2) The plates were placed in a cell incubator at 37° C. overnight. The compound diluted in 3-fold gradient with a medium was added to the plates at 100 μL/well the next day. All treatments were performed in triplicate. The plates were cultured in the cell incubator at 37° C. for another 72 h. Celltiter-Glo Luminescent cell viability assay was performed.
(§3) The cell proliferation rate corresponding to each well was calculated according to the following formula: proliferation %=(test compound well G3-GO average value)/(DMSO control well G3 average value -GO average value)×100. According to the corresponding proliferation rate and concentration of each gradient concentration well, a gradient curve of cell proliferation was fitted using Prism Graphpad software, and GI50 (GI50 is defined as the concentration of a compound corresponding to the cell proliferation inhibition rate of 50%) of the compound was calculated.

[2] = system: HER2 A775_G776insYVMA mutant Ba/F3; experiment: Ba/F3 cell proliferation assay, HER2 A775_G776insYVMA mutant; assay type: cell-based; settings: Mus musculus, BaF3, 72 h, Celltiter-Glo cell viability; for GI50: read-out: HER2 A775_G776 ins YVMA/BaF3 GI50; for Emax: read-out: HER2 A775_G776 ins YVMA/BaF3 Imax %
Procedure: as §1, §2, §3

[3] = system: EGFR wild-type Ba/F3 cells; experiment: Ba/F3 cell proliferation assay, EGFR wild-type; assay type: cell-based; settings: 72 h, Celltiter-Glo cell viability; for GI50: Mus musculus, BaF3, read-out: EGFR WT/BaF3 GI50
Procedure: as §1, §2, §3

in vivo [4] = experiment: in vivo; design: species or system SD rats; settings: both sexes, SD, rat, po, 50 mg/kg
Procedure: SD rats were used as test animals. After intragastric (i.g.) administration of example compounds to SD rats, the plasma concentrations at different time points were measured by the LC/MS/MS method. The pharmacokinetic behavior of the compound of the present disclosure in SD rats was studied, and its pharmacokinetic profiles were evaluated.
Four SD rats, of which half were male and half female, were provided by Vital River Laboratory Animal Technology Co., Ltd. The animals were fasted overnight and then intragastrically dosed.
A certain amount of example compound was weighed out and dissolved in 5% DMSO+20% PEG400+70% (10% TPGS)+5% (1% HPMC K100LV) to prepare a 5 mg/mL colorless clear solution.
The dose administered was 50 mg/kg, and the volume was 10.0 mL/kg.
(§4) 0.2-mL blood samples were collected from the orbit before administration and 0.25 h, 0.5 h, 1.0 h, 2.0 h, 4.0 h, 6.0 h, 8.0 h, 11.0 h, and 24.0 h after administration. The blood samples were placed into EDTA-K2 anticoagulation test tubes and centrifuged at 10,000 rpm for 1 min (4° C.), and plasma was separated within 1 h and stored in dry ice before analysis. The procedure starting from the blood collection to the centrifugation was performed under ice-bath conditions. Access to food was given 2 hours after administration.
After administration of different concentrations of the test compounds, the plasma concentration of the test compound in SD rats was determined: plasma samples (50 μL) were collected from the SD rats at various time points after administration, and 25 μL of camptothecin (1 μg/mL) and 450 μL of acetonitrile were added to each of the samples. The mixtures were vortexed and centrifuged at 3700 rpm for 10 min. 0.1 μL of the supernatant was taken for LC/MS/MS analysis.

in vivo [5] = experiment: in vivo; design: species or system C57 mice; settings: female, C57, mouse, po, 50 mg/kg
Procedure: C57 mice were used as test animals. After intragastric (i.g.) administration of example compounds to C57 mice, the plasma concentrations at different time points were measured by the LC/MS/MS method. The pharmacokinetic behavior of the compounds of the present disclosure in C57 mice was studied and their pharmacokinetic profiles were evaluated.
Twenty-seven C57 mice, female, were evenly divided into 3 groups, provided by Beijing HFK Bioscience Co., Ltd., and intragastrically administered.
A certain amount of example compound was weighed out and dissolved in 5% DMSO+20% PEG400+70% (10% TPGS)+5% (1% HPMC K100LV) to prepare a 2.5 mg/mL colorless clear solution.
The dose administered was 50 mg/kg, and the volume was 20.0 mL/kg.
as §4, with “0.1-mL blood” for “0.2-mL blood”, “for 2” for “for 1”, “stored at −20° C.” for “stored in dry ice”
After administration of different concentrations of the test compounds, the plasma concentrations of the test compounds in C57 mice were determined: plasma samples (50 μL) were collected from the C57 mice at various time points after administration, and 25 μL of labetalol (1 μg/mL) and 450 μL of acetonitrile were added to each of the samples.
The mixtures were vortexed and centrifuged at 3700 rpm for 10 min. 0.1 μL of the supernatant was taken for LC/MS/MS analysis.

| Compound | GI50 [1] | Emax [1] | GI50 [2] | Emax [2] | EGFR WT/BaF3 Imax % [3] | GI50 [3] | AUC(0-t) (in vivo [4]) | CL/F (in vivo [4]) | Cmax (in vivo [4]) | Vd/F (in vivo [4]) | half-life (in vivo [4]) | AUC(0-t) (in vivo [5]) | CL/F (in vivo [5]) | Cmax (in vivo [5]) | Vd/F (in vivo [5]) | half-life (in vivo [5]) |
| --- | --- | --- | --- | --- | --- | --- | --- | --- | --- | --- | --- | --- | --- | --- | --- | --- |
| C=CC(=O)N1[C@@H]2CC[C@H]1C[C@@H](Oc1ccc3ncnc(Nc4ccc(Oc5ccn6ncnc6c5)c(C)c4F)c3c1)C2 [Example 10, 1-(endo-3-((4-((4-([1,2,4]Triazolo[1,5-a]pyridin-7-yloxy)-2-fluoro-3-methylphenyl)amino)quinazolin-6-yl)oxy)-8-azabicyclo[3.2.1]octan-8-yl)prop-2-en-1-one] | 9.3 nM | 100% | 10.3 nM | 100% | 100% | 2840 nM | 70800 ng·h/mL | 14.7 mL/min/kg | 19300 ng/mL | 2.95 L/kg | 2.3 h | 31200 ng·h/mL | 26.5 mL/min/kg | 14000 ng/mL | 3.75 L/kg | 1.6 h |
| C=CC(=O)N1[C@@H]2CC[C@H]1C[C@@H](Oc1ccc3ncnc(Nc4ccc(Oc5ccc6c(c5)ncn6C)c(C)c4F)c3c1)C2 [Example 18, 1-(endo-3-((4-((2-Fluoro-3-methyl-4-((1-methyl-1H-benzo[d]imidazol-5-yl)oxy)phenyl)amino)quinazolin-6-yl)oxy)-8-azabicyclo[3.2.1]octan-8-yl)prop-2-en-1-one] | 17.7 nM | 100% | 23.6 nM | 100% | 100% | 2130 nM |  |  |  |  |  | 44900 ng·h/mL | 18.5 mL/min/kg | 12700 ng/mL | 3.93 L/kg | 2.5 h |
| C=CC(=O)N1[C@@H]2CC[C@H]1C[C@H](Oc1cc3c(Nc4ccc(Oc5ccn6ncnc6c5)c(C)c4)ncnc3cn1)C2 [Example 26, 1-(exo-3-((4-((4-([1,2,4]Triazolo[1,5-a]pyridin-7-yloxy)-3-methylphenyl)amino)pyrido[3,4-d]pyrimidin-6-yl)oxy)-8-azabicyclo[3.2.1]octan-8-yl)prop-2-en-1-one] | 9.2 nM | 100% | 23.4 nM | 100% | 100% | 1630 nM |  |  |  |  |  | 32100 ng·h/mL | 26 mL/min/kg | 11300 ng/mL | 2.88 L/kg | 1.3 h |
